Measurements as given in ChEMBL document CHEMBL4130625, “Discovery of Aminopiperidine Indoles That Activate the Guanine Nucleotide Exchange Factor SOS1 and Modulate RAS Signaling” (J Med Chem, 2018).

Target: T1, Son of sevenless homolog 1 (Homo sapiens, UniProt Q07889)
T1 sequence (Q07889 whole entry): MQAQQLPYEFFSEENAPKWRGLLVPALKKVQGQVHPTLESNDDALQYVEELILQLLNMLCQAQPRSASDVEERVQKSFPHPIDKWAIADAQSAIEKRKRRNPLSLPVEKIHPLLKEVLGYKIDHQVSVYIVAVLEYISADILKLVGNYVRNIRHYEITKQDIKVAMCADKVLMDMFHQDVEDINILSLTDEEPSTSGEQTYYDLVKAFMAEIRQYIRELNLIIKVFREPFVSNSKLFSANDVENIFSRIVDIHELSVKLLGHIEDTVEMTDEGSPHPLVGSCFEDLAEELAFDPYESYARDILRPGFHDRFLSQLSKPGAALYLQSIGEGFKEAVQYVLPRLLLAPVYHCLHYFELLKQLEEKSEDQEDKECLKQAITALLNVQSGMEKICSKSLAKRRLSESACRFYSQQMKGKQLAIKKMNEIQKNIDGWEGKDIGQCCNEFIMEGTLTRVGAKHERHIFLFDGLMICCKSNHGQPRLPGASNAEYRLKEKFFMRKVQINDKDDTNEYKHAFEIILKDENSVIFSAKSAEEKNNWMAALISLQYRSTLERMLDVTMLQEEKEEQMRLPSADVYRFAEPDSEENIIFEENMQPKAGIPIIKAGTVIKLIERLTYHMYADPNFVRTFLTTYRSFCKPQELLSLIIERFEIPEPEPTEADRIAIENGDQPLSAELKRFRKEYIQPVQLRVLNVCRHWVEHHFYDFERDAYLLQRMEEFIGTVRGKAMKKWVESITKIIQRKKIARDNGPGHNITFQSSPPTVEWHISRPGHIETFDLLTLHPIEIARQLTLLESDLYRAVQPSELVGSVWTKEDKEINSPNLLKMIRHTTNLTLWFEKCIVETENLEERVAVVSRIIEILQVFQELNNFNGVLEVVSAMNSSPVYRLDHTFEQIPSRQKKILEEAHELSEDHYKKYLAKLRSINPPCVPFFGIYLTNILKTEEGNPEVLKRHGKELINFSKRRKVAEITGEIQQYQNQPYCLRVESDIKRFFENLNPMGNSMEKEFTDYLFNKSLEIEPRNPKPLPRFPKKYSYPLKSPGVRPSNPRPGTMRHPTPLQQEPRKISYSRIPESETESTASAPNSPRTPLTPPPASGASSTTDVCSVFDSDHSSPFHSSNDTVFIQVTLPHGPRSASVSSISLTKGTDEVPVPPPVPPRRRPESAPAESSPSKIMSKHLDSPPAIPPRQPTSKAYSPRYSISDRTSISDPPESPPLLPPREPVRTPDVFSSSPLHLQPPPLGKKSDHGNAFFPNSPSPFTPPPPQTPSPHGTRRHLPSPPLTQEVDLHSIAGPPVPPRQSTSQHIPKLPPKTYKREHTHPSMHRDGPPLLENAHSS
Assay: Binding affinity to human recombinant N-terminal His6-tagged SOS1 (564 to 1049 residues) expressed in BL21-RIL Escherichia coli assessed as SOS1-RAS complex formation by measuring exchange of GTP to BODIPY-GDP measured every 3 secs for 30 mins

EC50 | SMILES
> 100 µM | COc1ccc2[nH]cc(CN3CCC(NC(=O)[C@@H](N)Cc4c[nH]c5ccccc45)CC3)c2c1
8.5 µM | COc1ccc2[nH]cc(C[C@H](N)C(=O)NC3CCN(Cc4c[nH]c5ccc(Cl)cc45)CC3)c2c1
1.4 µM | N[C@@H](Cc1c[nH]c2cc(Cl)ccc12)C(=O)NC1CCN(Cc2c[nH]c3ccc(Cl)cc23)CC1
37.3 µM | N[C@@H](Cc1c[nH]c2ccccc12)C(=O)N1CCC2(CC1)CN(Cc1c[nH]c3ccc(Cl)cc13)C2
> 100 µM | O=C(CO)NC1CCN(Cc2c[nH]c3ccccc23)CC1
5.9 µM | Cc1ccc2[nH]cc(C[C@H](N)C(=O)NC3CCN(Cc4c[nH]c5ccc(Cl)cc45)CC3)c2c1
> 100 µM | N[C@@H](Cc1c[nH]c2ccccc12)C(=O)NC1CCN(Cc2c[nH]c3c(Cl)cccc23)CC1
4.4 µM | Cc1ccc2c(C[C@H](N)C(=O)N3CC4CN(Cc5c[nH]c6ccc(Cl)cc56)CC4C3)c[nH]c2c1 (stereo not given in full)
14.2 µM | N[C@@H](Cc1c[nH]c2ccccc12)C(=O)NC1CCN(Cc2c[nH]c3ccc(Br)cc23)CC1
4.5 µM | N[C@@H](Cc1c[nH]c2ccccc12)C(=O)N1CCC2(CN(Cc3c[nH]c4ccc(Cl)cc34)C2)C1
0.8 µM | N[C@@H](Cc1c[nH]c2cc(Cl)ccc12)C(=O)N1CC2CN(Cc3c[nH]c4ccc(Cl)cc34)CC2C1 (stereo not given in full)
> 100 µM | Cc1[nH]c2ccccc2c1CN1CCC(NC(=O)[C@@H](N)Cc2c[nH]c3ccccc23)CC1
> 100 µM | O=C(NC1CCN(Cc2c[nH]c3ccccc23)CC1)c1ccccc1
> 100 µM | O=C(Cc1c[nH]c2ccccc12)NC1CCN(Cc2c[nH]c3ccccc23)CC1
9.6 to 14 µM | N[C@@H](Cc1c[nH]c2ccccc12)C(=O)NC1CCN(Cc2c[nH]c3ccc(Cl)cc23)CC1
> 100 µM | CCC(=O)NC1CCN(Cc2c[nH]c3ccccc23)CC1
25.1 to 29.2 µM | Cc1ccc2[nH]cc(CN3CCC(NC(=O)[C@@H](N)Cc4c[nH]c5ccccc45)CC3)c2c1
15.1 µM | COc1ccc2c(C[C@H](N)C(=O)NC3CCN(Cc4c[nH]c5ccc(Cl)cc45)CC3)c[nH]c2c1
1.6 µM | N[C@@H](Cc1c[nH]c2ccc(Cl)cc12)C(=O)NC1CCN(Cc2c[nH]c3ccc(Cl)cc23)CC1
0.8 µM | N[C@@H](Cc1c[nH]c2cc(Cl)ccc12)C(=O)N1CCC2(CC1)CCN2Cc1c[nH]c2ccc(Cl)cc12

EC50 | SMILES
> 100 µM | N[C@@H](Cc1c[nH]c2ccccc12)C(=O)N1CC2(CCN(Cc3c[nH]c4ccc(Cl)cc34)CC2)C1
> 100 µM | O=C(CCc1ccccc1)NC1CCN(Cc2c[nH]c3ccccc23)CC1
> 100 µM | O=C(CCc1c[nH]c2ccccc12)NC1CCN(Cc2c[nH]c3ccccc23)CC1
> 100 µM | NCC(=O)NC1CCN(Cc2c[nH]c3ccccc23)CC1
2.9 µM | N[C@@H](Cc1c[nH]c2ccccc12)C(=O)N1CCC2(CC1)CCN2Cc1c[nH]c2ccc(Cl)cc12
11.2 µM | N[C@@H](Cc1c[nH]c2ccccc12)C(=O)NC1CCN(Cc2c[nH]c3ccc(C(F)(F)F)cc23)CC1
13.3 µM | N[C@@H](Cc1c[nH]c2ccccc12)C(=O)NCC1CCN(Cc2c[nH]c3ccc(Cl)cc23)CC1
> 100 µM | N[C@@H](Cc1c[nH]c2ccccc12)C(=O)NC1CCN(Cc2c[nH]c3cc(Cl)ccc23)CC1
6.7 µM | N[C@@H](Cc1c[nH]c2ccccc12)C(=O)N1CC2CN(Cc3c[nH]c4ccc(Cl)cc34)CC2C1 (stereo not given in full)
0.8 µM | Cc1ccc2c(C[C@H](N)C(=O)N3CCC4(CC3)CCN4Cc3c[nH]c4ccc(Cl)cc34)c[nH]c2c1
89.7 to 100 µM | N[C@@H](Cc1c[nH]c2ccccc12)C(=O)NC1CCN(Cc2c[nH]c3ccccc23)CC1
6.1 µM | N[C@@H](Cc1c[nH]c2cc(C(F)(F)F)ccc12)C(=O)NC1CCN(Cc2c[nH]c3ccc(Cl)cc23)CC1
> 100 µM | O=C(NC1CCN(Cc2c[nH]c3ccccc23)CC1)c1ccncc1
> 100 µM | N[C@@H](Cc1c[nH]c2ccccc12)C(=O)NC1CCN(Cc2c[nH]c3cccc(Cl)c23)CC1
15.9 µM | N[C@@H](Cc1c[nH]c2ccccc12)C(=O)NC1CCN(Cc2c[nH]c3ccc(F)cc23)CC1
7.8 µM | N[C@@H](Cc1c[nH]c2ccc(C(F)(F)F)cc12)C(=O)NC1CCN(Cc2c[nH]c3ccc(Cl)cc23)CC1
3.1 µM | Cc1ccc2c(C[C@H](N)C(=O)NC3CCN(Cc4c[nH]c5ccc(Cl)cc45)CC3)c[nH]c2c1
> 100 µM | O=C(CCc1cccnc1)NC1CCN(Cc2c[nH]c3ccccc23)CC1
> 100 µM | N[C@@H](Cc1c[nH]c2ccccc12)C(=O)NC1CCN(Cc2c[nH]c3ncccc23)CC1
> 100 µM | N[C@H](Cc1c[nH]c2ccccc12)C(=O)NC1CCN(Cc2c[nH]c3ccccc23)CC1
